Here are results for 4 molecules from US10662221B2, “Cystargolide compounds and uses thereof” (UNIVERSITY OF PRINCE EDWARD ISLAND, priority 2015, dated 2020).

One data set addresses T1, human 20S proteasome (Homo sapiens, UniProt P28074).
T1 construct: purified human erythrocyte 20S proteasome; purchased Enzo Life Sciences BML-PW8720-0020; host or cells: purified from human erythrocytes (native tissue material)
Kind of data set: 20S proteasome inhibition assay (chymotrypsin-like activity, Suc-LLVY-AMC cleavage). Type of data set: biochemical. The settings on record: purified human erythrocyte 20S proteasome 3 μg/mL, Suc-LLVY-AMC 75 μM, 30° C., 10 min preincubation, triplicate ± SD.

For the next data set, the system named is rabbit 20S proteasome. The settings on record: read-out: IC50, inhibition of chymotrypsin-like activity of the rabbit 20S proteasome; cited from earlier work.
A short description of data set [1]: Stability in mild acidic conditions. Type of data set: physicochemical. The settings on record: resulting in polymerization. The text has this: The fifth degree of unsaturation was attributed to cyclization. Two options were therefore available; a macrolactone cyclization between C-1 and the C-2″ hydroxyl, or a β-lactone between C-4″ and the C-2″ hydroxyl. The presence of IR absorption at 1835 cm^−1 was characteristic of a β-lactone carbonyl stretching band and therefore strongly supports cyclization between C-4″ and the hydroxyl at C-2″. The lack of HMBC correlation between H-2″ and C-1 also supported a β-lactone cyclization. The presence of the β-lactone was further confirmed by the instability of 1 in mild acidic conditions resulting in polymerization. The relative configuration at the C-2″ and C-3″ positions on the β-lactone moiety was determined from an analysis of the ^3JHH values.

“And” between values parts separate entries of the source, which are not always exact repeats. Equal values may be shown once.

Protocol for human 20S proteasome: Varying concentrations of 1 and 2 were incubated with purified human 20S proteasome. To determine the chymotrypsin-like activity, the fluorogenic substrate Suc-LLVY-AMC was added and fluorescence was recorded to measure the rate of enzyme activity.
1 and 2 were tested for proteasome inhibition using purified human erythrocyte 20S proteasome (Enzo Life Sciences: BML-PW8720-0020). 20S proteasome was diluted to a final concentration of 3 μg/mL in assay buffer (50 mM Tris/HCl, pH 7.5, 25 mM KCl, 10 mM NaCl, 1 mM MgCl2, and 0.03% SDS), and incubated with inhibitors at varying concentrations at 30° C. for 10 minutes. To determine the chymotrypsin-like activity, the reaction was initiated by the addition of the fluorogenic substrate Suc-LLVY-AMC (Enzo Life Sciences, BML-9802-9090) at a final concentration of 75 μM. The rate of cleavage of the substrate was determined by measuring fluorescence using a Spectra Max M2 (Molecular Devices) plate reader at an excitation wavelength of 360 nm and emission of 460 nm. The fluorescence was recorded every 15 seconds for 30 minutes, and the linear regression between 15 and 30 minutes were used to calculate the rate of substrate cleavage (AFU/s). Control wells were included that contained no inhibitor to show the maximum substrate cleavage rate, epoxomicin (0.5 μM) and no enzyme (Blank) to show the minimum response. The IC50 values, the concentration required to reduce the enzyme response by 50 percent, were calculated by Prism 6.0 (GraphPad Software) using a nonlinear regression dose-response, variable slope model based on triplicate measurements±standard deviation.

As a reminder, the IC50 is the concentration that inhibits the measured activity by half. As for `CC(C)C1C(=O)OC1C(=O)N[C@H](C(=O)N[C@H](C(=O)O)C(C)C)C(C)C` (some centres unmarked) [Compound 2, Cystargolide B], half-maximal inhibition against human 20S proteasome (IC50) was put at 930 nM.
With belactosin A, the IC50 with rabbit 20S proteasome was 210 nM.
With `CCC(C)[C@H](NC(=O)[C@@H](NC(=O)C1OC(=O)C1C(C)C)C(C)C)C(=O)O` (some centres unmarked) [Compound 1, Cystargolide A], on human 20S proteasome, the IC50 is 360 nM and 350 nM. In data set [1], the “stability in mild acidic conditions” value is recorded as “instability”.
With belactosin C, the IC50 with rabbit 20S proteasome is 210 nM.
